Earlier results in patent US11472851B2, “Recombinant bacillus subtilis and application thereof” (priority 2019, dated 2022).

Sublancin (GLGKAQCAALWLQCASGGTIGCGGGAVACQNYRQFCR; Sublancin)
phagocytosis of macrophages (macrophages): enhance the phagocytosis of macrophages
immune function of poultry (poultry): enhance the immune function of poultry
